Measurements published in paper PMC8156151 (The European Respiratory Journal, 2021).
Like-named read-outs stand apart in the source and are kept apart here.

How the values were obtained:
Assay type in all cases: in vivo, human
PAI-1 = test: Plasma biomarker PAI-1; conditions: for PAI-1 raw data, Mean (SD) / PAI-1 least square means % baseline±SEM: IPF patients
Method: (§1) All patients, investigators, sites and study sponsor personnel were blinded to the study group assignments throughout the study. Patients underwent study-specific assessments on days 2, 3, 7, 14 and 15, and a post-study assessment was carried out 26–30 days after the last day of the study period. Assessments included vital signs (supine blood pressure, pulse, oxygen saturation, oral temperature and respiratory rate), spirometry, 12-lead ECG, physical examination, laboratory safety screen (haematology, biochemistry, urinalysis and urinary drugs of abuse screen) and blood sampling for PK measurements. All adverse events and concomitant medications were recorded from the time of the screening visit until the post-study follow-up visit. BAL was performed at day −1 (24 h before the first dose) and at day 14 (2 h after the last dose). The BAL procedure was performed as per international guidelines. Briefly, 240 mL of 0.9% saline at room temperature was instilled in 40 mL aliquots into the right middle lobe and aspirated by suction after each aliquot.
(§2) BAL cells were separated from fluid by centrifugation, and cells were collected, stained with antibodies (supplementary material) and then fixed before analysis using a LSR Fortessa flow cytometer (Becton Dickinson, Franklin Lakes, NJ, USA). Data were analysed using FlowJo software (Tree Star, Ashland, OR, USA). Macrophages were identified as having high side scatter properties and human leukocyte antigen-DR positivity. Gal-3 expression (mean fluorescence intensity) was determined from the macrophage gate (supplementary figures S1 and S2). […] Samples were analysed by magnetic Luminex assay (R&D Systems, Minneapolis, MN, USA) or ELISA.
(§3) For part 2 of the study, placebos were combined from the three dose-specific cohorts into a pooled control group (n=9). For alveolar macrophage Gal-3 expression and the plasma biomarkers, ANCOVA was performed for percentage of baseline ((day 14/day 1)×100). The ANCOVA model included effects for treatment group and baseline (day 1) value. […] An additional analysis including dose as a continuous covariate was also performed. The Pearson correlation coefficient (r) and associated p-value were calculated for percentage of baseline and day 14 values between plasma biomarkers and alveolar macrophage Gal-3 expression. […] The analysis is exploratory and there was no pre-planned adjustment for multiple testing; the study was not powered for this. Alveolar macrophage Gal-3 expression was considered the primary exploratory analysis with the pre-selected biomarkers secondary. A Bonferroni correction for multiple testing of the secondary end-points comparing the 10 mg group with placebo gives a critical value of 0.0063. Data are presented as the difference in least square means with 95% confidence interval and p-value unless otherwise stated. All analyses were performed using SAS version 9.4 (SAS Institute, Cary, NC, USA). […]

Gal-3 = conditions: for Galectin-3 raw data, Mean (SD) / Gal-3 least square means % baseline±SEM: IPF patients; for Galectin-3 raw data, Mean (SD): Day 14; for Gal-3 least square means % baseline±SEM: day 14
Method: as §1, with “BAL was performed at day −1 (24 h before the first dose) and at day 14 (2 h after the last dose).” left out
as §2
as §3, with “Data are presented as the difference in least square means with 95% confidence interval and p-value unless otherwise stated.” left out
Plasma pharmacodynamic biomarkers
The following pre-specified biomarkers were evaluated in samples of plasma based on the basis

MMP-8 = test: Plasma biomarker MMP-8; conditions: for MMP-8 raw data, Mean (SD) / MMP-8 least square means % baseline±SEM: IPF patients
Method: as §1, §2, §3

Gal-1 = test: Plasma biomarker Gal-1; conditions: for Galectin-1 raw data, Mean (SD) / Gal-1 least square means % baseline±SEM: IPF patients
Method: as §1, §2, §3

IL-1ra = test: Plasma biomarker IL-1ra; conditions: for IL-1ra raw data, Mean (SD) / IL-1ra least square means % baseline±SEM: IPF patients
Method: as §1, §2, §3

OC[C@H]1O[C@@H](S[C@@H]2O[C@H](CO)[C@H](O)[C@H](n3cc(-c4cccc(F)c4)nn3)[C@H]2O)[C@H](O)[C@@H](n2cc(-c3cccc(F)c3)nn2)[C@H]1O [TD139]
PAI-1 difference in least square means % baseline (95% CI) (PAI-1; 10 mg vs placebo, ANCOVA): −151.8 (−265.3– −38.2) % baseline
PAI-1 raw data, Mean (SD) (PAI-1; Day 14, 0.3 mg): 45736.7 (29863.26) pg/ml
PAI-1 raw data, Mean (SD) (PAI-1; Day 14, 3 mg): 45744.4 (44222.1) pg/ml
PAI-1 raw data, Mean (SD) (PAI-1; Day 14, 10 mg): 23122.2 (12659.84) pg/ml
PAI-1 least square means % baseline±SEM (PAI-1; day 14, 0.3 mg once daily): 84.6±48.8 % baseline
PAI-1 least square means % baseline±SEM (PAI-1; day 14, 3 mg once daily): 92.4±44.5 % baseline
PAI-1 least square means % baseline±SEM (PAI-1; day 14, 10 mg once daily): 45.8±43.7 % baseline
circulating Gal-3 plasma concentrations (percentage of baseline), difference versus placebo (Gal-3; 10 mg dose group): −67.63%
Galectin-3 raw data, Mean (SD) (Gal-3; plasma, 0.3 mg): 13290.4 (4951.24) pg/ml
Galectin-3 raw data, Mean (SD) (Gal-3; plasma, 3 mg): 9298.5 (3499.54) pg/ml
Galectin-3 raw data, Mean (SD) (Gal-3; plasma, 10 mg): 4486.3 (697.25) pg/ml
Gal-3 least square means % baseline±SEM (Gal-3; plasma, 0.3 mg once daily): 113.9±21.2 % baseline
Gal-3 least square means % baseline±SEM (Gal-3; plasma, 3 mg once daily): 119.5±21.3 % baseline
Gal-3 least square means % baseline±SEM (Gal-3; plasma, 10 mg once daily): 53.4±23.5 % baseline
Gal-3 difference in least square means % baseline (95% CI) (Gal-3; plasma, 10 mg vs placebo, ANCOVA): −67.6 (−126.9– −8.4) % baseline
MMP-8 difference in least square means % baseline (95% CI) (MMP-8; 10 mg vs placebo, ANCOVA): −125.4 (−271.3–20.5) % baseline
MMP-8 raw data, Mean (SD) (MMP-8; Day 14, 0.3 mg): 1911.5 (1577.82) pg/ml
MMP-8 raw data, Mean (SD) (MMP-8; Day 14, 3 mg): 2263.3 (2428.78) pg/ml
MMP-8 raw data, Mean (SD) (MMP-8; Day 14, 10 mg): 44436.7 (97465.67) pg/ml
MMP-8 least square means % baseline±SEM (MMP-8; day 14, 0.3 mg once daily): 138.0±52.8 % baseline
MMP-8 least square means % baseline±SEM (MMP-8; day 14, 3 mg once daily): 115.2±52.7 % baseline
MMP-8 least square means % baseline±SEM (MMP-8; day 14, 10 mg once daily): 51.5±56.1 % baseline
Gal-1 difference in least square means % baseline (95% CI) (Gal-1; 10 mg vs placebo, ANCOVA): −16.6 (−60.0–26.7) % baseline
Galectin-1 raw data, Mean (SD) (Gal-1; Day 14, 0.3 mg): 41996.4 (7357.87) pg/ml
Galectin-1 raw data, Mean (SD) (Gal-1; Day 14, 3 mg): 60416.7 (17348.65) pg/ml
Galectin-1 raw data, Mean (SD) (Gal-1; Day 14, 10 mg): 48409.7 (21339.06) pg/ml
Gal-1 least square means % baseline±SEM (Gal-1; day 14, 0.3 mg once daily): 93.1±16.7 % baseline
Gal-1 least square means % baseline±SEM (Gal-1; day 14, 3 mg once daily): 120.2±16.6 % baseline
Gal-1 least square means % baseline±SEM (Gal-1; day 14, 10 mg once daily): 89.7±16.6 % baseline
IL-1ra difference in least square means % baseline (95% CI) (IL-1ra; 10 mg vs placebo, ANCOVA): 6.0 (−47.5–59.4) % baseline
IL-1ra raw data, Mean (SD) (IL-1ra; Day 14, 0.3 mg): 548.3 (279.69) pg/ml
IL-1ra raw data, Mean (SD) (IL-1ra; Day 14, 3 mg): 709.8 (338.05) pg/ml
IL-1ra raw data, Mean (SD) (IL-1ra; Day 14, 10 mg): 1992.9 (2627.15) pg/ml
IL-1ra least square means % baseline±SEM (IL-1ra; day 14, 0.3 mg once daily): 93.2±20.3 % baseline
IL-1ra least square means % baseline±SEM (IL-1ra; day 14, 3 mg once daily): 98.7±20.2 % baseline
IL-1ra least square means % baseline±SEM (IL-1ra; day 14, 10 mg once daily): 98.0±20.8 % baseline
